Measurements taken from patent US7160983B2, “Echinocandin derivatives, their method of preparation and their application as anti-fungal agents” (Aventis Pharma S.A., priority 1997, dated 2007).

Test system: Glucane Synthesis of Candida Albicans
Assay: Inhibition of the glucane synthesis of Candida albicans (membrane preparation, 14C-UDP glucose incorporation)
Assay type: biochemical
Details: Candida albicans membranes, 25° C., 1 hour
Protocol: Pharmacological Study A—Inhibition of the Glucane Synthesis of Candida Albicans.
The membranes of Candida albicans are purified according to the process described by Tang and al Antimicrob. Agents Chemother 35, 99–103, 1991. 22.5 μg of membrane proteins are incubated in a mixture of 2 Mm of 14C-UDP glucose (specific activity=0.34 mCi./mmol, 50 μg of α-amylase, 1 Mm of dithiotreitol (DTT), 1 Mm EDTA, 100 Mm NaF, 7 μM of GTP-γ-S, 1M of sucrose and 5 oMm OF Ttris-HCL (pH 7.8) in a volume of 100 μl. The medium is incubated at 25° C. for 1 hour and the reaction terminated by addition of TCA to a final concentration of 5%. The reaction medium is transferred onto a pre-humidified glass fibre filter. The filter is washed, dried and its radioactivity is counted.
Mulundocandin is used as positive control.
The control of the medium is carried out with the same quantity of DMSO 1%.

Row | Substance | Inhibition of the glucane synthesis of Candida albicans (activity in words)
1 | (±) Trifluoroacetate of 1-[4-[(aminoiminomethyl)hydrazono]-N2-(12-methyl-1-oxotetradecyl)-L-ornithine]4-[4-(4-hydroxyphenyl)-L-threonine]-5-L serine echinocandin B [Example 11] | good activity
2 | Trifluoroacetate of 1-[4-[(2-aminoethyl) amino]-N2-(12-methyl-1-oxotetradecyl)-L-ornithine]4-[4-(4-hydroxyphenyl)-L-threonine]-5-L serine echinocandin B (isomer A and isomer B) [Example 9] | good activity
3 | Trifluoroacetate of 1-[4-[(2-aminoethyl) amino]N2-[[4′-(octyloxy)[1.1′-biphenyl]-4-[carbonyl]-L-ornithine]4-[4-(4-(4-hydroxyphenyl)-L-threonine]-5-L serine echinocandin B (isomer A) [Example 14] | good activity
